Measured values as given in PubChem BioAssay (NCI).
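Five concentrations, 48 hours, 96-well plates. GI50 marks 50% less growth. At the TGI there is no net growth.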

Key:
Assay in all cases: growth of human tumour cells (NCI), 48 h
SNB-19 CNS = system: SNB-19 CNS
KM12 colon = system: KM12 colon
SF-268 CNS = system: SF-268 CNS
K-562 leukemia = system: K-562 leukemia
HOP-92 NSCLC = system: HOP-92 NSCLC
SN12C renal = system: SN12C renal
MCF7 breast = system: MCF7 breast
HS 578T breast = system: HS 578T breast
PC-3 prostate = system: PC-3 prostate
MDA-MB-231 breast = system: MDA-MB-231 breast

Row | SMILES | TGI (SNB-19 CNS) [µM] | TGI (KM12 colon) [µM] | TGI (SF-268 CNS) [µM] | TGI (K-562 leukemia) [µM] | TGI (HOP-92 NSCLC) [µM] | TGI (SN12C renal) [µM] | TGI (MCF7 breast) [µM] | TGI (HS 578T breast) [µM] | TGI (PC-3 prostate) [µM] | TGI (MDA-MB-231 breast) [µM] | GI50 (SNB-19 CNS) [µM] | GI50 (MDA-MB-231 breast) [µM] | GI50 (MCF7 breast) [µM] | GI50 (KM12 colon) [µM] | GI50 (SF-268 CNS) [µM] | GI50 (K-562 leukemia) [µM] | GI50 (HS 578T breast) [µM] | GI50 (HOP-92 NSCLC) [µM] | GI50 (SN12C renal) [µM] | GI50 (PC-3 prostate) [µM]
1 | N.N.N.O=[N+]([O-])[O-].O=[N+]([O-])[O-].O=[N+]([O-])[O-].O=[N+]([O-])[O-].[Co+3] | > 100 | > 100 | > 100 | > 100 | > 100 | > 100 | – | – | – | – | – | – | – | – | – | – | – | – | – | –
2 | COC(=O)C1C(C(=O)OC)N(Cc2ccccc2)C(=O)N1Cc1ccccc1 (configuration not stated) | > 100 | > 100 | > 100 | > 100 | > 100 | > 100 | > 100 | > 100 | > 100 | – | – | – | – | – | – | – | – | – | – | –
3 | CCOC(=O)c1csc(NC(=O)CCN(CC)CC)n1 | > 100 | 52.8 | – | > 100 | 69.3 | – | 55.5 | – | > 100 | > 100 | – | – | – | – | – | – | – | – | – | –
4 | C#CCCCCC#Cc1ccccc1C(=O)OC | > 100 | > 100 | > 100 | 67.4 | 86 | > 100 | – | – | – | – | – | – | – | – | – | – | – | – | – | –
5 | CCCc1cc(=O)c2c(C)c3[nH]c4ccc(Cl)cc4c3c(C)c2[nH]1 | 8.9 | 12.3 | 24.1 | – | 5.1 | 5.31 | 3.37 | 32.7 | 14.7 | 3.97 | – | – | – | – | – | – | – | – | – | –
6 | O=C(O)CC/C(=N\Nc1nsc2ccccc12)c1ccccc1 | > 100 | > 100 | > 100 | > 100 | > 100 | > 100 | – | – | – | – | – | – | – | – | – | – | – | – | – | –
7 | C=C(C(=O)C(=O)Oc1ccc(Cl)cc1)C(=O)c1ccc(C)cc1 | > 100 | 42.5 | > 100 | > 100 | > 100 | > 100 | – | – | – | – | – | – | – | – | – | – | – | – | – | –
8 | C/C(CCOC1CCCCO1)=C(\C)[Si](C)(C)C (configuration not stated) | > 100 | > 100 | > 100 | > 100 | > 100 | > 100 | – | – | – | – | – | – | – | – | – | – | – | – | – | –
9 | CC(C)OP(=O)(OC(C)C)c1c(Nc2ccccc2)n[nH]c1N | > 100 | > 100 | > 100 | > 100 | > 100 | – | > 100 | > 100 | > 100 | > 100 | – | – | – | – | – | – | – | – | – | –
10 | O=C1C(Cl)=C(N2CCN(C3=C(Cl)C(=O)c4ccccc4C3=O)CC2)C(=O)c2ccccc21 | 28.7 | 15.4 | 6.1 | – | 2.4 | 3.09 | 3.34 | 7.12 | 20.3 | 3.34 | – | – | – | – | – | – | – | – | – | –
11 | COCCOCOc1ccc(OCc2ccccc2)cc1 | > 100 | > 100 | > 100 | > 100 | > 100 | > 100 | > 51.4 | – | – | – | – | – | – | – | – | – | – | – | – | –
12 | CCN1c2ccccc2-n2c(C)nnc2-c2c1n[nH]c2-c1ccccc1 | > 100 | > 100 | > 100 | 26 | > 100 | 81.6 | – | > 100 | 96.5 | 71.1 | – | – | – | – | – | – | – | – | – | –
13 | CN(C)CCCOc1nc2c(c(=O)n(C)c(=O)n2C)n1C (tested in a mixture with another compound) | > 100 | > 100 | > 100 | > 100 | > 100 | 30.1 | > 100 | > 100 | > 100 | 32.2 | – | – | – | – | – | – | – | – | – | –
14 | CC1=C(O)C(=O)[C@@H]2O[C@@H]2C1=O | 115 | 27.3 | 30.5 | 42.7 | 17.1 | 52.4 | 31.7 | – | – | – | – | – | – | – | – | – | – | – | – | –
15 | C=CCN1C(=O)/C(=C/c2ccccc2)N=C1SC1OC(COC(=O)c2ccccc2)C(OC(=O)c2ccccc2)C1OC(=O)c1ccccc1 (configuration not stated) | – | > 100 | – | > 100 | > 100 | – | > 100 | – | > 100 | > 100 | – | – | – | – | – | – | – | – | – | –
16 | COc1ccc2[nH]c(O)c(/C=c3/cc4c(c(-c5cc(OC)c(OC)c(OC)c5)n3)=Nc3ccccc3-4)c2c1 | > 100 | > 100 | > 100 | > 100 | 99.2 | > 100 | > 100 | > 100 | > 100 | 36.6 | 26 | 0.982 | 2.11 | 5.04 | 46.4 | 4.14 | 9.81 | 3.43 | 61.2 | 5.47
